Assay results reported in patent US6544540B2, “Base-triggered release microcapsules” (priority 1998, dated 2003).

Key:
Lygus hesperus = assay: Test 1 A. Contact/Residue Contact, adult bugs in cages sprayed, mortality; type: in vivo
From the text: Lygus hesperius was the subject in this test. Adult bugs in cages were sprayed at 250 l/h. There were four replicates of 10 insects for 5 rates of each formulation. Mortality assessments were made at 1, 2, 3, 4, 5, and 6 DAT.

Heliothis virescens = assay: Test 1 B. Foliar Persistence, neonate larvae on disks of sprayed detached cotton leaves, mortality; type: in vivo; conditions: cotton leaf disks

CCOP(=S)(OCC)Oc1nc(Cl)c(Cl)cc1Cl [Chlorpyrifos technical, chlorpyrifos]
LC50 1DAT (Lygus hesperus; mortality at 1 DAT, sprayed at 250 l/h): 313 ppm | LC50 2DAT (Lygus hesperus; mortality at 2 DAT, sprayed at 250 l/h): 310 ppm | LC50 3DAT (Lygus hesperus; mortality at 3 DAT, sprayed at 250 l/h): 311 ppm | LC50 4DAT (Lygus hesperus; mortality at 4 DAT, sprayed at 250 l/h): 313 ppm | LC50 5DAT (Lygus hesperus; mortality at 5 DAT, sprayed at 250 l/h): 313 ppm | LC50 6DAT (Lygus hesperus; mortality at 6 DAT, sprayed at 250 l/h): 325 ppm | LC50 (Lygus hesperus; previous test results, Lygus hesperus contact/residue contact): ~300 ppm | LC50 Total (Heliothis virescens; Total over 1-3 DAT): 10.2 ppm | LC50 1DAT (Heliothis virescens; mortality at 1 DAT): 9.8 ppm | LC50 2DAT (Heliothis virescens; mortality at 2 DAT): 8.6 ppm | LC50 3DAT (Heliothis virescens; mortality at 3 DAT): 12.2 ppm
